Data published in patent US12458614B2, “Therapeutic agents for improved mobility and cognitive function and for treating neurodegenerative diseases and lysosomal storage disorders” (priority 2017, dated 2025).

Legend:
[1] = system: Npc1−/− mice; experiment: Weight data; format: in vivo, mouse; conditions: 0.1 g/kg from weaning
From the text: (§1) Separate groups of Npc1^−/− and Npc1^+/+ mice were left untreated, as controls. Animals were weighed twice a week. Weights were averaged (mean) across all mice in each group and compared.

[2] = system: wild-type (Npc1+/+) mice; experiment: Weight data; format: in vivo, mouse; conditions: 0.1 g/kg from weaning
From the text: as §1

[3] = system: Npc1−/− mice; experiment: Motor function analysis (Open Field Activity Monitor); format: in vivo, mouse; conditions: nine weeks of age
Description: (§2) Separate groups of Npc1^−/− and Npc1^+/+ mice were left untreated, as controls. Motor function analysis was performed on mice at eight and nine weeks of age using an Open Field Activity Monitor according to manufacturer's instructions (Linton Instruments, Amlogger Software). Each mouse was placed in a plastic cage with bedding and analysed for five minutes. Rears were counted manually. Motor function parameters measured were: • 1. Centre Rearing: mice rearing on hind legs unsupported; • 2. Rearing: mice rearing on hind legs with and without the support of cage walls; • 3. Activity: regular movement of the animal including walks; • 4. Front to Back (FR) count: movement of the animal from front to back of the cage; • 5. Active Time: duration (s/min) of activeness regardless of movement; • 6. Mobile Time: duration (s/min) of mobility; • 7. Rearing Time: duration of any rearing. Results Coat Condition

[4] = system: wild-type (Npc1+/+) mice; experiment: as above; format: in vivo, mouse; conditions: nine weeks of age
Description: as §2

[5] = system: Npc1−/− mouse; experiment: Lifespan; format: in vivo; conditions: 0.1 g/kg from 3 weeks of age
From the text: Separate groups of Npc1^−/− and Npc1^+/+ mice were left untreated, as controls.

[6] = system: Sandhoff disease model, Hexb−/− mouse; experiment: Step cycle time; format: in vivo; conditions: Sandhoff mice, 12 weeks of age
Description: This study made use of a mouse model of Sandhoff disease, the Hexb^−/− mouse, as descrbed in Jeyakumar et al. (Jeyakumar, M. et al. (1999) Proc. Natl. Acad. Sci. USA 96: 6388-6393). Step cycle is the length of time taken during locomotion by a limb from the time it leaves the ground until it leaves the ground on the next occasion. Step cycle time was assessed at 12 weeks of age in untreated and acetyl-leucine treated Sandhoff model mice. Acetyl-leucine treatment constituted 0.1 g/kg body weight acetyl-leucine from 3 weeks of age.

[7] = system: patients with progressive supranuclear palsy; experiment: Case studies, progressive supranuclear palsy; format: in vivo, human
Description: After 27 days of acetyl-leucine treatment, medication was stopped and the patient was re-examined 60 days later. […] Gait analysis was performed before treatment commenced. After 17 days of treatment, medication was stopped and the patient was re-examined 4 days later. […] Gait analysis was performed before treatment commenced. After three weeks of treatment, medication was stopped and the patient was re-examined.

[8] = system: patient with spinocerebellar ataxia 28 (SCA 28); experiment: Case study, spinocerebellar ataxia 28; format: in vivo, human; conditions: SCA 28 patient, about one month, 5 g per day
Description: A gait analysis was performed before treatment commenced. After about one month of treatment, medication was stopped and the patient was evaluated. […] The patient reported that they no longer walked like a robot and could climb the stairs without using the banisters.

[9] = system: person with balance disorder/senile gait disorder; experiment: Case study Example 23; format: in vivo, human
[10] = system: patients with vertigo; conditions: clinical results reported by various authors; cited from earlier work
[11] = PSP Patient 4, after three weeks of treatment

Which results are given for `CC(=O)NC(CC(C)C)C(=O)O` (racemic) [acetyl-DL-leucine]?
Delay of weight loss symptoms compared to the untreated group [1]: two; Effect on weight gain [2]: no significant effect; Motor function properties vs untreated littermates [3]: significantly improved motor function; Motor function properties vs untreated littermates [4]: no significant difference in motor function properties; Lifespan [5]: small but statistically significant increase in lifespan; Average step cycle time ([6]; p<0.001 vs untreated): significantly faster average step cycle times; Hind step cycle time ([6]; p<0.01 vs untreated): significantly faster hind step cycle times; Front step cycle time ([6]; p<0.05 vs untreated): significantly faster front step cycle times; Symptoms after suspension ([7]; PSP Patient 1): symptoms worsened; PSPRS Score ([7]; PSP Patient 1, re-examined about two months later): remained stable; Dizziness and gait (patient report) ([7]; PSP Patient 1, under therapy, 27 days): significant reduction of dizziness and slight improvement of gait; Gait / hypokinetic rigid syndrome (patient report) ([7]; PSP Patient 2, 17 days of treatment): no significant improvement of gait or hypokinetic rigid syndrome; Gait / hypokinetic rigid syndrome (patient report) ([7]; PSP Patient 3, 17 days of treatment): no significant improvement of gait or hypokinetic rigid syndrome; Symptoms without medication ([7]; PSP Patient 4, after three months without medication): progression of hypokinetic-rigid syndrome; Gait analysis (summary) [7, 11]: improvement of gait with increased speed, max. speed, and step cycle length and reduction of track width, double stance and coefficient of variation; Gait and falls (patient report) [7, 11]: gait with increased subjective security and with reduced frequency of falls; Symptomatology (patient report) [8]: improvement of the symptomatology, in particular reduced dizziness; Frequency of falls ([9]; Day 14): significant reduction in the frequency of falls; Hypokinetic-rigid syndrome ([9]; Day 14): No change of hypokinetic-rigid syndrome; Dizziness symptoms ([9]; Day 14, 3 then 5 gram per day): improvement of dizziness symptoms; Dizziness after suspension ([9]; two days after suspension of treatment): increase of dizziness symptoms; improvement in vertigo symptomology (share of cases) [10]: more than 95%
